# Several values for one entry are separate records, joined by “and”; a condition that tells them apart may be missing. Identical values can stand only once.
# Key:
# [1] = Itraconazole (strong CYP3A inhibitor) DDI study, plasma pharmacokinetics; type: in vivo, human; conditions: for AUC(0-t) / AUC(0-inf) / Cmax / half-life / Tmax: both sexes, human, plasma; for AUC(0-t) / AUC(0-inf) / Cmax / half-life: po; for AUC(0-t) / AUC(0-inf) / Cmax / half-life / Tmax / CL/F, arithmetic mean (SD) / CL/F, geometric mean (CV%): fasting; for Tmax: read-out: tmax, median (min, max); for Time postdose that mean plasma concentration remained above the LLOQ: LLOQ 2.00 ng/mL
# Procedure: (§1) All studies were phase 1, fixed‐sequence, open‐label studies in healthy volunteers. One study consisted of two separate cohorts examining DDIs between ripretinib and itraconazole or pantoprazole, respectively; the rifampin study was conducted separately. Studies and cohorts were enrolled independently. Eligible participants were healthy male or female adults between 18 and 55 years of age with a body mass index (BMI) of ≥18.5 and ≤30 kg/m^2. Good health was confirmed by a physician and based on medical evaluation with no significant findings, including medical history, physical examination, laboratory tests, and 12‐lead electrocardiogram (ECG) at screening and day −1. Participants were required to abstain from alcohol, marijuana, grapefruit, Seville oranges, tangelo, star fruit, and grapefruit‐like products 14 days prior to and during the study. Participants with a positive breath test for Helicobacter pylori were excluded from the pantoprazole study.
# (§2) Ripretinib and its active metabolite DP‐5439 plasma concentrations were measured using a validated high‐performance liquid chromatography (HPLC) with tandem mass spectrometry (LC‐MS/MS) assay with a lower limit of quantification (LLOQ) of 2.00 ng/mL for both analytes. In this method, the analytes (ripretinib and DP‐5439) and the internal standards (ISs; DCC‐2618‐d5 and DP‐5439‐d5) were released from human plasma samples by protein precipitation. The supernatants were chromatographed using reversed‐phase HPLC with a Betasil® C8 analytical column with deionized water (0.1% formic acid) and 40/60 acetonitrile/acetone (0.1% formic acid) as the mobile phase. Mass spectrometric detection was performed on a triple quadrupole tandem mass spectrometer API 5000 or API 5500 (Applied Biosystems/MDS Sciex, Toronto, Canada) equipped with a turbo ion spray source operated in the positive ionization mode. The source parameters were collision energy 40 eV, collision gas 6 psi, Nebulizer Gas 1, Turbo IonSpray Gas 2, and curtain gas 35 psi. Quantification was obtained by using multiple reaction monitoring mode of the transitions of mass to charge ratio [m/z] 510.3 →417 for DCC‐2618 (ripretinib), m/z 496.2 →403 for DP‐5439, m/z 515.3 →417 for DCC‐2618‐d5, and m/z 501.2 →403 for DP‐5439‐d5.
# (§3) Plasma concentration–time data were analyzed using noncompartmental methods using Phoenix® WinNonlin® v7.0 (Certara USA Inc., Princeton, New Jersey). Derived PK parameters included area under the concentration–time curve from time 0 to time t (AUC0–t) and area under the concentration–time curve from 0 to infinity (AUC0–∞), maximum observed concentration (Cmax), time of maximum observed concentration (tmax), elimination half‐life (t1/2), apparent systemic clearance, and for DP‐5439, metabolite to parent ratio for AUC0–t, AUC0–∞, and Cmax.
# (§4) The PK population included all participants who received ≥1 dose ripretinib and had ≥1 nonmissing PK concentration in plasma reported for ripretinib or DP‐5439. The PK evaluable set included all participants in the PK population who had ripretinib PK parameters on both ripretinib dosing days, bioanalytical results for ≥75% of planned analyses, no missed ripretinib doses and ≤2 missed perpetrator (itraconazole, pantoprazole, or rifampin) doses before the second dosing day of ripretinib, and no emesis within 8 hours of ripretinib administration. […]
# [2] = Pantoprazole (proton pump inhibitor) DDI study, plasma pharmacokinetics; type: in vivo, human; conditions: for AUC(0-t) / AUC(0-inf) / Cmax / half-life / Tmax: both sexes, human, plasma; for AUC(0-t) / AUC(0-inf) / Cmax / half-life: po; for AUC(0-t) / AUC(0-inf) / Cmax / half-life / Tmax / CL/F, arithmetic mean (SD) / CL/F, geometric mean (CV%): fasting; for Tmax: read-out: tmax, median (min, max); for Time postdose that mean plasma concentration remained above the LLOQ: LLOQ 2.00 ng/mL
# Procedure: as §1
# (§5) Participants were confined to the study center on days 1 through 16. On day 1, participants received an oral dose of ripretinib 50 mg under fasting conditions (Figure 1C). On days 8 through 13, participants received pantoprazole 40 mg once daily. On day 14, participants received pantoprazole 40 mg once daily and ripretinib 50 mg simultaneously under fasting conditions.
# as §2, §3, §4
# [3] = Safety assessment (TEAEs), pantoprazole study; type: in vivo, human
# Procedure: as §5
# Relationship to study drug was assessed by the investigator.
# Safety data were summarized as n (%).
# Solubility = type: physicochemical
# [4] = ripretinib 50 mg single oral dose + itraconazole 200 mg QD, healthy participants (N = 20)
# [5] = ripretinib 50 mg single oral dose alone, healthy participants (itraconazole study, N = 20)
# [6] = ripretinib 50 mg with itraconazole 200 mg QD relative to ripretinib alone
# [7] = ripretinib 50 mg single oral dose + pantoprazole 40 mg QD, healthy participants (N = 23)
# [8] = ripretinib 50 mg single oral dose alone, healthy participants (pantoprazole study, N = 23)
# [9] = ripretinib 50 mg with pantoprazole 40 mg QD relative to ripretinib alone
# [10] = ripretinib 50 mg with pantoprazole 40 mg QD relative to ripretinib alone, listed as ripretinib
compound,measurement,setting,value
CCn1c(=O)c(-c2cc(NC(=O)Nc3ccccc3)c(F)cc2Br)cc2cnc(NC)cc21 [Ripretinib],AUC(0-t),"[1]; 50 mg, ripretinib 50 mg single oral dose alone, healthy participants (itraconazole study, N = 20), read-out: AUC0–t, arithmetic mean (SD)",4400 ng·h/mL
same,AUC(0-t),"[1]; 50 mg, ripretinib 50 mg single oral dose alone, healthy participants (itraconazole study, N = 20), read-out: AUC0–t, geometric mean (CV%)",4060 ng·h/mL
same,AUC(0-inf),"[1]; 50 mg, ripretinib 50 mg single oral dose alone, healthy participants (itraconazole study, N = 20), read-out: AUC0–∞, arithmetic mean (SD)",4500 ng·h/mL
same,AUC(0-inf),"[1]; 50 mg, ripretinib 50 mg single oral dose alone, healthy participants (itraconazole study, N = 20), read-out: AUC0–∞, geometric mean (CV%)",4180 ng·h/mL
same,Cmax,"[1]; 50 mg, ripretinib 50 mg single oral dose alone, healthy participants (itraconazole study, N = 20), read-out: Cmax, arithmetic mean (SD)",321 ng/mL
same,Cmax,"[1]; 50 mg, ripretinib 50 mg single oral dose alone, healthy participants (itraconazole study, N = 20), read-out: Cmax, geometric mean (CV%)",291 ng/mL
same,half-life,"[1]; 50 mg, ripretinib 50 mg single oral dose alone, healthy participants (itraconazole study, N = 20), read-out: t1/2, arithmetic mean (SD) (converted)",1020 min
same,half-life,"[1]; 50 mg, ripretinib 50 mg single oral dose alone, healthy participants (itraconazole study, N = 20), read-out: t1/2, geometric mean (CV%) (converted)",960 min
same,AUC(0-t),"[1]; ripretinib 50 mg single oral dose + itraconazole 200 mg QD, healthy participants (N = 20), read-out: AUC0–t, arithmetic mean (SD)",8900 ng·h/mL
same,AUC(0-t),"[1]; ripretinib 50 mg single oral dose + itraconazole 200 mg QD, healthy participants (N = 20), read-out: AUC0–t, geometric mean (CV%)",8060 ng·h/mL
same,AUC(0-inf),"[1]; ripretinib 50 mg single oral dose + itraconazole 200 mg QD, healthy participants (N = 20), read-out: AUC0–∞, arithmetic mean (SD)",9190 ng·h/mL
same,AUC(0-inf),"[1]; ripretinib 50 mg single oral dose + itraconazole 200 mg QD, healthy participants (N = 20), read-out: AUC0–∞, geometric mean (CV%)",8310 ng·h/mL
same,Cmax,"[1]; ripretinib 50 mg single oral dose + itraconazole 200 mg QD, healthy participants (N = 20), read-out: Cmax, arithmetic mean (SD)",404 ng/mL
same,Cmax,"[1]; ripretinib 50 mg single oral dose + itraconazole 200 mg QD, healthy participants (N = 20), read-out: Cmax, geometric mean (CV%)",395 ng/mL
same,half-life,"[1]; ripretinib 50 mg single oral dose + itraconazole 200 mg QD, healthy participants (N = 20), read-out: t1/2, arithmetic mean (SD) (converted)",1620 min
same,half-life,"[1]; ripretinib 50 mg single oral dose + itraconazole 200 mg QD, healthy participants (N = 20), read-out: t1/2, geometric mean (CV%) (converted)",1440 min
same,Tmax,[1]; [4],4 h
same,Tmax,[1]; [5],3 h
same,Increase in exposure with daily itraconazole coadministration,[1]; ripretinib 50 mg + itraconazole 200 mg QD vs ripretinib alone,up to 99%
same,Time postdose that mean plasma concentration remained above the LLOQ,[1]; ripretinib 50 mg alone (itraconazole study),96 h
same,"CL/F, arithmetic mean (SD)",[1]; [4],7 (3) L/h
same,"CL/F, geometric mean (CV%)",[1]; [4],6 (48) L/h
same,"CL/F, arithmetic mean (SD)",[1]; [5],13 (5) L/h
same,"CL/F, geometric mean (CV%)",[1]; [5],12 (42) L/h
same,Geometric LS mean ratio of AUC0–t,[1]; [6],198%
same,Geometric LS mean ratio of AUC0–∞ (90% CI),[1]; [6],199 (174–227) %
same,Geometric LS mean ratio of Cmax (90% CI),[1]; [6],136% and 136 (116–159) %
same,Geometric LS mean ratio of AUC0–∞ (90% CI),"[1]; ripretinib 50 mg with itraconazole 200 mg QD relative to ripretinib alone, listed as ripretinib",199%
same,Time postdose that mean plasma concentration remained above the LLOQ,[1]; ripretinib 50 mg with itraconazole,up to 168 hours
same,AUC(0-t),"[2]; 50 mg, ripretinib 50 mg single oral dose alone, healthy participants (pantoprazole study, N = 23), read-out: AUC0–t, arithmetic mean (SD)",3870 ng·h/mL
same,AUC(0-t),"[2]; 50 mg, ripretinib 50 mg single oral dose alone, healthy participants (pantoprazole study, N = 23), read-out: AUC0–t, geometric mean (CV%)",3610 ng·h/mL
same,AUC(0-inf),"[2]; 50 mg, ripretinib 50 mg single oral dose alone, healthy participants (pantoprazole study, N = 23), read-out: AUC0–∞, arithmetic mean (SD)",3950 ng·h/mL
same,AUC(0-inf),"[2]; 50 mg, ripretinib 50 mg single oral dose alone, healthy participants (pantoprazole study, N = 23), read-out: AUC0–∞, geometric mean (CV%)",3690 ng·h/mL
same,Cmax,"[2]; 50 mg, ripretinib 50 mg single oral dose alone, healthy participants (pantoprazole study, N = 23), read-out: Cmax, arithmetic mean (SD)",301 ng/mL
same,Cmax,"[2]; 50 mg, ripretinib 50 mg single oral dose alone, healthy participants (pantoprazole study, N = 23), read-out: Cmax, geometric mean (CV%)",289 ng/mL
same,half-life,"[2]; 50 mg, ripretinib 50 mg single oral dose alone, healthy participants (pantoprazole study, N = 23), read-out: t1/2, arithmetic mean (SD) (converted)",840 min
same,half-life,"[2]; 50 mg, ripretinib 50 mg single oral dose alone, healthy participants (pantoprazole study, N = 23), read-out: t1/2, geometric mean (CV%) (converted)",780 min
same,AUC(0-t),"[2]; ripretinib 50 mg single oral dose + pantoprazole 40 mg QD, healthy participants (N = 23), read-out: AUC0–t, arithmetic mean (SD)",4220 ng·h/mL
same,AUC(0-t),"[2]; ripretinib 50 mg single oral dose + pantoprazole 40 mg QD, healthy participants (N = 23), read-out: AUC0–t, geometric mean (CV%)",3940 ng·h/mL
same,AUC(0-inf),"[2]; ripretinib 50 mg single oral dose + pantoprazole 40 mg QD, healthy participants (N = 23), read-out: AUC0–∞, arithmetic mean (SD)",4310 ng·h/mL
same,AUC(0-inf),"[2]; ripretinib 50 mg single oral dose + pantoprazole 40 mg QD, healthy participants (N = 23), read-out: AUC0–∞, geometric mean (CV%)",4030 ng·h/mL
same,Cmax,"[2]; ripretinib 50 mg single oral dose + pantoprazole 40 mg QD, healthy participants (N = 23), read-out: Cmax, arithmetic mean (SD)",319 ng/mL
same,Cmax,"[2]; ripretinib 50 mg single oral dose + pantoprazole 40 mg QD, healthy participants (N = 23), read-out: Cmax, geometric mean (CV%)",298 ng/mL
same,half-life,"[2]; ripretinib 50 mg single oral dose + pantoprazole 40 mg QD, healthy participants (N = 23), read-out: t1/2, arithmetic mean (SD) (converted)",840 min
same,half-life,"[2]; ripretinib 50 mg single oral dose + pantoprazole 40 mg QD, healthy participants (N = 23), read-out: t1/2, geometric mean (CV%) (converted)",840 min
same,Tmax,[2]; [7],4 h
same,Tmax,[2]; [8],4 h
same,Effect of pantoprazole on exposure / pharmacokinetics,[2]; ripretinib 50 mg + pantoprazole 40 mg QD,no effect
same,Time postdose that mean plasma concentration remained above the LLOQ,[2]; ripretinib 50 mg alone (pantoprazole study),< 96 h
same,"CL/F, arithmetic mean (SD)",[2]; [7],13 (5) L/h
same,"CL/F, geometric mean (CV%)",[2]; [7],12 (38) L/h
same,"CL/F, arithmetic mean (SD)",[2]; [8],14 (5) L/h
same,"CL/F, geometric mean (CV%)",[2]; [8],14 (38) L/h
same,Geometric LS mean ratio of AUC0–t,[2]; [9],109%
same,Geometric LS mean ratio of AUC0–∞ (90% CI),[2]; [9],109 (98–122) %
same,Geometric LS mean ratio of Cmax (90% CI),[2]; [9],103 (91–117) %
same,Geometric LS mean ratio of AUC0–∞ (90% CI),[2]; [10],109%
same,Geometric LS mean ratio of Cmax (90% CI),[2]; [10],103%
same,Time postdose that mean plasma concentration remained above the LLOQ,[2]; ripretinib 50 mg with pantoprazole,< 96 h
same,Number of TEAEs attributed to study drug,"[3]; human, in vivo, 28 days",42
same,Participants with TEAEs attributed to study drug per the investigator,"[3]; human, in vivo, 28 days",19 (76%) n (%)
same,Total number of TEAEs,"[3]; human, in vivo, 28 days",63
same,Deaths and serious AEs,"[3]; pantoprazole study, N = 25",No deaths occurred and no participants experienced SAEs
same,"Solubility, pH dependence",Solubility,reduced solubility at neutral pH

# From article PMC9790248, “Effects of CYP3A Inhibition, CYP3A Induction, and Gastric Acid Reduction on the Pharmacokinetics of Ripretinib, a Switch Control KIT Tyrosine Kinase Inhibitor” (Clinical Pharmacology in Drug Development, 2022)
